The values that follow come from patent US20240376097A1, “BCL-2 Inhibitor” (BeiGene Ltd., priority 2020, published 2024).

The structures appear in SMILES notation.

The subject of series [1] is RS4;11 (BCL-2 dependent acute lymphoblastic leukemia cell line). Description: RS4;11 Cell Proliferation Assay. The settings on record: Homo sapiens, RS4;11 cells, read-out: Cellular proliferation assay (IC50, nM) RS4. The format is cell-based. Put shortly:
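Viability measured via CellTiter-Glo luminescence after a 48 h, 37 °C exposure to compounds (10 points, highest 1 μM). Seeding was 50,000 RS4;11 cells per well in 10% FBS RPMI-1640; IC50 given as mean.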

Series [2] deals with recombinant human Bcl-2 D103Y protein (Homo sapiens (Human), UniProt P10415, D103Y). Description: Bcl-2-D103Y Biochemical Assay (TR-FRET). The format is binding. The settings on record: for IC50: TR-FRET, FITC labeled Bak peptide; for Ratio of Bcl-2 D103Y/Bcl-2 WT: ratio of IC50; for ratio of Bcl-2 D103Y/Bcl-2 wt, compared with F91b in WO2019210828: comparison in words. Put shortly:
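Compounds titrated against the Bcl-2 D103Y–ligand interaction; inhibition derived from the TR-FRET emission ratio 490 nm/520 nm after 337 nm excitation. Four-parameter logistic fitting gave IC50.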
For orientation: In TR-FRET formats the signal depends on donor and acceptor labels being close together.

The nature of series [3]: Metabolic Stability Study, liver microsome incubation (human). The settings on record: human liver microsomes 0.5 mg/mL, 1 μM compound, NADPH; for half-life at 1 μM: NA^# = very stable, beyond the detection limits, read-out: T1/2 (min) Human; for microsomal CLint at 1 μM: read-out: CLint (μL × min^−1 × mg^−1) Human. The format is in vitro ADME. A digest of the protocol: (§1)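 Test compounds (1 μM) incubated at 37° C with 0.5 mg/mL liver microsomes plus NADPH regenerating system; samples quenched at 0, 30 and 60 min. Parent loss measured by LC-MS/MS, giving CLint and T1/2, with CLint normalised to microsomal protein concentration.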

The nature of series [4]: Metabolic Stability Study, liver microsome incubation (mouse). The format is in vitro ADME. The conditions noted are these: mouse liver microsomes 0.5 mg/mL, 1 μM compound, NADPH; for microsomal CLint at 1 μM: read-out: CLint (μL × min^−1 × mg^−1) mouse; for half-life at 1 μM: NA^# = very stable, beyond the detection limits, read-out: T1/2 (min) mouse. A digest of the protocol: as §1
(Microsomes from liver hold many membrane-bound enzymes, among them those of drug oxidation.)

recombinant human Bcl-2 D103Y protein, sequence (P10415 whole entry D103Y): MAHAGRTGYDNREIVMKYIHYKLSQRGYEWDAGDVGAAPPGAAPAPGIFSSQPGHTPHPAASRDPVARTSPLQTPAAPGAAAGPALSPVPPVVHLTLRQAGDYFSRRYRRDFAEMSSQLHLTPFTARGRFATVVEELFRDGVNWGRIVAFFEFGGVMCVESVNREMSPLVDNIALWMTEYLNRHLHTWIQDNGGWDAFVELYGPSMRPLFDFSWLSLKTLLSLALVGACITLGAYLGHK

Turning to `CC(C)c1ccccc1C1CN(Cc2ccc(F)c(F)c2)CCN1C1CC2(CCN(c3ccc(C(=O)NS(=O)(=O)c4ccc(NC[C@H]5CC[C@](C)(O)CC5)c([N+](=O)[O-])c4)c(Oc4cnc5[nH]ccc5c4)c3)CC2)C1` (some centres unmarked) [Example 52, 2-((1H-pyrrolo[2,3-b]pyridin-5-yl)oxy)-4-(2-(4-(3,4-difluorobenzyl)-2-(2-isopropylphenyl)piperazin-1-yl)-7-azaspiro[3.5]nonan-7-yl)-N-((4-((((1r,4r)-4-hydroxy-4-methylcyclohexyl)methyl)amino)-3-nitrophenyl)sulfonyl)benzamide], the IC50 in series [1] stood at 0.36 nM. For the same molecule, in series [2], the IC50 came to 610 pM and the “Ratio of Bcl-2 D103Y/Bcl-2 WT” value is on record as 2.5. Moreover, in series [3], the half-life at 1 μM was 145 min and the microsomal CLint at 1 μM was 9.5 µL/min/mg. The microsomal CLint at 1 μM in series [4] is less than 1 µL/min/mg.

As for `COc1ccc(CN2CCN(C3CC4(CCN(c5ccc(C(=O)NS(=O)(=O)c6ccc(NC[C@H]7CC[C@](C)(O)CC7)c([N+](=O)[O-])c6)c(Oc6cnc7[nH]ccc7c6)c5)CC4)C3)C(c3ccccc3C(C)C)C2)cn1` (some centres unmarked) [Example 72, 2-((1H-pyrrolo[2,3-b]pyridin-5-yl)oxy)-N-((4-((((1r,4r)-4-hydroxy-4-methylcyclohexyl)methyl)amino)-3-nitrophenyl)sulfonyl)-4-(2-(2-(2-isopropylphenyl)-4-((6-methoxypyridin-3-yl)methyl)piperazin-1-yl)-7-azaspiro[3.5]nonan-7-yl)benzamide], the IC50 in series [1] amounted to 0.45 nM. In series [2], the IC50 stood at 80 pM; the “ratio of Bcl-2 D103Y/Bcl-2 wt, compared with F91b in WO2019210828” value is “significantly lower”; the “Ratio of Bcl-2 D103Y/Bcl-2 WT” value was determined as 1.6. For the same molecule, in series [3], the half-life at 1 μM was 491 min and the microsomal CLint at 1 μM came out at 2.8 µL/min/mg. For the same molecule, in series [4], the half-life at 1 μM came out at 159 min and the microsomal CLint at 1 μM stood at 8.7 µL/min/mg.

On to `CC(C)c1ccccc1[C@@H]1CN(Cc2cccc3c2OCCO3)CCN1C1CC2(CCN(c3ccc(C(=O)NS(=O)(=O)c4ccc(NC[C@H]5CC[C@](C)(O)CC5)c([N+](=O)[O-])c4)c(Oc4cnc5[nH]ccc5c4)c3)CC2)C1` [Example 79a, 2-((1H-pyrrolo[2,3-b]pyridin-5-yl)oxy)-4-(2-(R-4-((2,3-dihydrobenzo [b][1,4]dioxin-5-yl)methyl)-2-(2-isopropylphenyl)piperazin-1-yl)-7-azaspiro[3.5]nonan-7-yl)-N-((4-((((1r,4r)-4-hydroxy-4-methylcyclohexyl)methyl)amino)-3-nitrophenyl)sulfonyl)benzamide], for which the IC50 in series [1] turned out to be 0.104 nM; in series [2] it was 200 pM. Further, the “Ratio of Bcl-2 D103Y/Bcl-2 WT” value in series [2] came out at 1.9. The half-life at 1 μM in series [3] stood at 253 min; in series [4], 124 min. In addition, the microsomal CLint at 1 μM in series [3] came out at 5.5 µL/min/mg; in series [4] it was 11.2 µL/min/mg.

As for `COc1ccc(CN2CCN(C3CC4(CCN(c5ccc(C(=O)NS(=O)(=O)c6ccc(NC[C@H]7CC[C@](C)(O)CC7)c([N+](=O)[O-])c6)c(Oc6cnc7[nH]cc(F)c7c6)c5)CC4)C3)[C@H](c3ccccc3C(C)C)C2)cc1OC` [Example 127, 4-(2-((R)-4-(3,4-dimethoxybenzyl)-2-(2-isopropylphenyl)piperazin-1-yl)-7-azaspiro[3.5]nonan-7-yl)-2-((3-fluoro-1H-pyrrolo[2,3-b]pyridin-5-yl)oxy)-N-((4-((((1r,4r)-4-hydroxy-4-methylcyclohexyl)methyl)amino)-3-nitrophenyl)sulfonyl)benzamide], the IC50 in series [1] was determined as 0.167 nM. Also, in series [2], the IC50 was 110 pM; the “ratio of Bcl-2 D103Y/Bcl-2 wt, compared with F91b in WO2019210828” value was “significantly lower”; the “Ratio of Bcl-2 D103Y/Bcl-2 WT” value was found to be 1. The microsomal CLint at 1 μM in series [3] is less than 1 µL/min/mg. In series [4], the half-life at 1 μM is 182 min and the microsomal CLint at 1 μM was found to be 7.63 µL/min/mg.

For `COc1ccc(CN2CCN(C3CC4(C3)CN(c3ccc(C(=O)NS(=O)(=O)c5ccc(NC[C@H]6CC[C@](C)(O)CC6)c([N+](=O)[O-])c5)c(Oc5cnc6[nH]cc(F)c6c5)c3)C4)[C@H](c3ccccc3C(C)C)C2)cc1OC` [Example 141a, 4-(6-((R)-4-(3,4-dimethoxybenzyl)-2-(2-isopropylphenyl)piperazin-1-yl)-2-azaspiro[3.3]heptan-2-yl)-2-((3-fluoro-1H-pyrrolo[2,3-b]pyridin-5-yl)oxy)-N-((4-((((1r,4r)-4-hydroxy-4-methylcyclohexyl)methyl)amino)-3-nitrophenyl)sulfonyl)benzamide], the IC50 in series [1] worked out at 0.166 nM. In series [2], the IC50 came to 72 pM; the “ratio of Bcl-2 D103Y/Bcl-2 wt, compared with F91b in WO2019210828” value is given as “significantly lower”; the “Ratio of Bcl-2 D103Y/Bcl-2 WT” value was 1.3. In series [3], the half-life at 1 μM is 343 min and the microsomal CLint at 1 μM is 4 µL/min/mg. In series [4], the half-life at 1 μM amounted to 18100 min and the microsomal CLint at 1 μM was found to be 0.07 µL/min/mg.

Consider `COc1ccc(CN2CCN(C3CC4(C3)CN(c3ccc(C(=O)NS(=O)(=O)c5ccc(NC[C@H]6CC[C@](C)(O)CC6)c([N+](=O)[O-])c5)c(Oc5cnc6[nH]ccc6c5)c3)C4)[C@H](c3ccccc3C(C)C)C2)cc1OC` [Example 145, 2-((1H-pyrrolo[2,3-b]pyridin-5-yl)oxy)-4-(6-((R)-4-(3,4-dimethoxybenzyl)-2-(2-isopropylphenyl)piperazin-1-yl)-2-azaspiro[3.3]heptan-2-yl)-N-((4-((((1r,4r)-4-hydroxy-4-methylcyclohexyl)methyl)amino)-3-nitrophenyl)sulfonyl)benzamide], for which the IC50 in series [1] came to 0.104 nM. In series [2], the IC50 was determined as 45 pM; the “ratio of Bcl-2 D103Y/Bcl-2 wt, compared with F91b in WO2019210828” value is recorded as “significantly lower”; the “Ratio of Bcl-2 D103Y/Bcl-2 WT” value came out at 1.6. Moreover, in series [3], the half-life at 1 μM turned out to be 970 min and the microsomal CLint at 1 μM worked out at 1.4 µL/min/mg. Besides, in series [4], the half-life at 1 μM stood at 196 min and the microsomal CLint at 1 μM stood at 7.1 µL/min/mg.

On to `COc1ccc(CN2CCN(C3CC4(C3)CN(c3ccc(C(=O)NS(=O)(=O)c5ccc(NC[C@H]6CC[C@](C)(O)CC6)c([N+](=O)[O-])c5)c(Oc5cnc6[nH]ccc6c5)c3)C4)[C@H](c3ccccc3C(C)C)C2)cc1` [Example 147, 2-((1H-pyrrolo[2,3-b]pyridin-5-yl)oxy)-N-((4-((((1r,4r)-4-hydroxy-4-methylcyclohexyl)methyl)amino)-3-nitrophenyl)sulfonyl)-4-(6-((R)-2-(2-isopropylphenyl)-4-(4-methoxybenzyl)piperazin-1-yl)-2-azaspiro[3.3]heptan-2-yl) benzamide], for which, in series [1], the IC50 is 0.14 nM. Further, in series [2], the IC50 came to 86 pM and the “Ratio of Bcl-2 D103Y/Bcl-2 WT” value was determined as 1.6. For the same molecule, the microsomal CLint at 1 μM in series [3] was less than 1 µL/min/mg. Besides, in series [4], the half-life at 1 μM is 301 min and the microsomal CLint at 1 μM stood at 4.6 µL/min/mg.
